Laboratory results as given in patent US11920139B2, “Regulated expression of antigen and/or regulated attenuation to enhance vaccine immunogenicity and/or safety” (priority 2007, dated 2024).

Legend:
[1] = tested on: Salmonella Typhi strain χ9633(pYA4088); assay: Minimum inhibitory concentrations of antibiotics; type: cell-based; settings: for MIC: Salmonella enterica, TYPHI, read-out: Minimum inhibitory concentration
Text: (§1) Master seed and working seed banks of each vaccine organism in separate vials have been prepared for frozen storage in vegetable-based cryopreservative. […] Antibiotic sensitivity testing has confirmed that these strains are sensitive to ciprofloxacin, ampicillin, ceftriaxone, trimethoprim/sulfamethoxazole (Table 15). Ampicillin, ciprofloxacin, ceftriaxone and trimethoprim/sulfamethoxazole are typically tested for minimum inhibitory concentrations (MICs) for Salmonella.

[2] = tested on: Salmonella Typhi strain χ9639(pYA4088); assay: microbe, parasite or virus in culture; type: cell-based; settings: for MIC: Salmonella enterica, TYPHI, read-out: Minimum inhibitory concentration
Text: (§2) Master seed and working seed banks of each vaccine organism in separate vials have been prepared for frozen storage in vegetable-based cryopreservative. […] Ampicillin, ciprofloxacin, ceftriaxone and trimethoprim/sulfamethoxazole are typically tested for minimum inhibitory concentrations (MICs) for Salmonella.

[3] = tested on: Salmonella Typhi strain χ9640(pYA4088); assay: microbe, parasite or virus in culture; type: cell-based; settings: for MIC: Salmonella enterica, TYPHI, read-out: Minimum inhibitory concentration
Text: as §2

[4] = tested on: the three vaccine strains (RASV-Sp); assay: Antibiotic sensitivity testing of the vaccine strains; type: cell-based, Salmonella Typhi
Text: as §1

| Molecule | MIC [1] [µg/mL] | MIC [2] [µg/mL] | MIC [3] [µg/mL] | antibiotic sensitivity [4] | Minimum inhibitory concentration [1] [µg/mL] | Minimum inhibitory concentration [2] [µg/mL] | Minimum inhibitory concentration [3] [µg/mL] |
| --- | --- | --- | --- | --- | --- | --- | --- |
| CC1(C)S[C@@H]2[C@H](NC(=O)[C@H](N)c3ccccc3)C(=O)N2[C@H]1C(=O)O [ampicillin] | < 2 | < 2 | < 2 | sensitive |  |  |  |
| CO/N=C(\C(=O)N[C@@H]1C(=O)N2C(C(=O)O)=C(CSc3nc(=O)c(=O)[nH]n3C)CS[C@H]12)c1csc(N)n1 [ceftriaxone] | < 0.25 | < 1 | < 1 | sensitive |  |  |  |
| O=C(O)c1cn(C2CC2)c2cc(N3CCNCC3)c(F)cc2c1=O [ciprofloxacin] | < 0.25 | < 0.25 | < 0.25 | sensitive |  |  |  |
| trimethroprim-sulfamethoxazole |  |  |  | sensitive | <20 | <20 | <20 |
